Key:
[1] = system: SARS-CoV-2 Delta; type: cell-based
[2] = system: SARS-CoV-2 Omicron; type: cell-based
[3] = system: A549-ACE2 cells
[4] = system: Vero cells

SMILES	effect on SARS-CoV-2 replication in ALI HBE cultures [1]	inhibition of Omicron-induced caspase 3/7 activation [2]	drug-induced phospholipidosis [3]	drug-induced phospholipidosis [4]
Cc1cc(C)nc(NC(=S)N2CCN(Cc3ccc(C(F)(F)F)cc3)CC2)c1 [NCT-503]	inhibited SARS-CoV-2 replication	inhibited	–	–
CCN(CCO)CCCC(C)Nc1ccnc2cc(Cl)ccc12 (stereo not shown) [hydroxychloroquine]	–	–	considerable phospholipidosis	considerable phospholipidosis
